Consider 16 compounds from patent publication US8148366B2, “Substituted pyrazolo[3,4-E][diazepin-6-5(H)ones and analogues thereof, their preparation and their use as antibacterial medicaments” (Novexel SA, priority 2008, dated 2012).

≈ marks a conversion by molar mass, not a printed value.

One test deals with Pseudomonas aeruginosa (1771 Wild-type strain). Nature of the test: Activity in vitro, method of dilutions in liquid medium (M.I.C.). In kind it is cell-based. The conditions noted are these: incubation 24 hours at 37° C., growth inhibition by transillumination. The protocol: Activity in vitro, method of dilutions in liquid medium:
A series of tubes is prepared, into which the same quantity of sterile nutritive medium is distributed, increasing quantities of the product to be studied are distributed into each tube then each tube is seeded with a bacterial strain. After incubation for 24 hours in an oven at 37° C., growth inhibition is assessed by transillumination, which makes it possible to determine the minimum inhibitory concentrations (M.I.C.) expressed in μg/ml.
Tests are thus carried out with the products of Examples 1 to 19 in comparison with the products of Examples 11 of the Application WO 04/052891 and 18 of the Application WO 02/100860.
As for “trans 8-(aminomethyl)-2-amino-carbamoyl-4,8-dihydro-5-(sulphooxy)-4,7-methano-7H-pyrazolo[3,4-e][1,3]diazepin-6(5H)-one [Ex19]”, the “MIC (μg/mL) 24 h (P, aerug, 1771)” value stood at 0.5 µg/mL.

On to `NC[C@@H]1c2nn(C(=O)N3CCNCC3)cc2[C@H]2CN1C(=O)N2OS(=O)(=O)O` (relative stereo) [Ex2, trans 8-(aminomethyl)-2-(4-piperazine-1-carbonyl)-4,8-dihydro-5-(sulphooxy)-4,7-methano-7H-pyrazolo[3,4-e][1,3]diazepin-6(5H)-one], for which the “MIC (μg/mL) 24 h (P, aerug, 1771)” value came to 0.5 µg/mL (≈ 1.25 µM).

For `Cn1ncc2c1[C@@H](CN)N1C[C@H]2N(OC(F)(F)C(=O)O)C1=O` (relative stereo) [Ex18, trans 8-(amino-methyl)-4,8-dihydro-1-methyl-6-oxo-5-(carboxy-difluoro-methoxy)-4,7-methano-7H-pyrazolo[3,4-e][1,3] diazepin-6(5H)-one], the “MIC (μg/mL) 24 h (P, aerug, 1771)” value came to 0.5 µg/mL (≈ 1.58 µM).

As for `N=C(N)n1ncc2c1[C@@H](CN)N1C[C@H]2N(OS(=O)(=O)O)C1=O` (relative stereo) [Ex9], the “MIC (μg/mL) 24 h (P, aerug, 1771)” value was found to be 0.5 µg/mL (≈ 1.51 µM).

Staying with this test, now noted: incubation 24 hours at 37° C., growth inhibition by transillumination, read-out: MIC (μg/mL) 24 h (P, aerug, 1771).
`N=C(N)NC[C@@H]1c2[nH]ncc2[C@H]2CN1C(=O)N2OS(=O)(=O)O` (relative stereo) [Ex13, trans 8-(guanidino-methyl)-4,8-dihydro-5-(sulphooxy)-4,7-methano-7H-pyrazolo[3,4-e][1,3]diazepin-6(5H)-one]: the MIC is 1 µg/mL (≈ 3.02 µM).

For the compound `CCNC(=O)n1cc2c(n1)[C@@H](CNC(=N)N)N1C[C@H]2N(OS(=O)(=O)O)C1=O` (relative stereo) [Ex16, trans 8-(guanidino-methyl)-2-ethylcarbamoyl-4,8-dihydro-5-(sulphooxy)-4,7-methano-7H-pyrazolo[3,4-e][1,3] diazepin-6(5H)-one], the MIC amounted to 16 µg/mL (≈ 39.8 µM).

`NC[C@@H]1c2nn(C(=O)C3CCNCC3)cc2[C@H]2CN1C(=O)N2OS(=O)(=O)O` (relative stereo) [Ex11, trans-8-(amino-methyl)-4,8-dihydro-2-(piperidine-4-carbonyl)-5-(sulphooxy)-4,7-methano-7H-pyrazolo[3,4-e][1,3]diazepin-6(5H)-one]: the MIC amounted to 0.25 µg/mL (≈ 0.624 µM).

In the case of `NC[C@@H]1c2nn(C(=O)NCC(N)=O)cc2[C@H]2CN1C(=O)N2OS(=O)(=O)O` (relative stereo) [Ex7, trans 8-(aminomethyl)-2-(carbamoylmethyl-carbamoyl)-4,8-dihydro-5-(sulphooxy)-4,7-methano-7H-pyrazolo[3,4-e][1,3]diazepin-6(5H)-one], the MIC was found to be 1 µg/mL (≈ 2.57 µM).

On to `NC[C@@H]1c2nn(C(=O)N3CCCC3)cc2[C@H]2CN1C(=O)N2OS(=O)(=O)O` (relative stereo) [Ex4, trans 8-(aminomethyl)-4,8-dihydro-2-(pyrrolidine-1-carbonyl)-5-(sulphooxy)-4,7-methano-7H-pyrazolo[3,4-e][1,3]diazepin-6(5H)-one], for which the MIC was found to be 8 µg/mL (≈ 20.7 µM).

With `CCNC(=O)n1ncc2c1[C@@H](CNC(=N)N)N1C[C@H]2N(OS(=O)(=O)O)C1=O` (relative stereo) [Ex15, trans 8-(guanidino-methyl)-1-ethylcarbamoyl-4,8-dihydro-5-(sulphooxy)-4,7-methano-7H-pyrazolo[3,4-e][1,3]diazepin-6(5H)-one], the MIC is more than 32 µg/mL.

On to `N=C(N)NC[C@@H]1c2nn(C(N)=O)cc2[C@H]2CN1C(=O)N2OS(=O)(=O)O` (relative stereo) [Ex17, trans 8-(guanidino-methyl)-2-carbamoyl-4,8-dihydro-5-(sulphooxy)-4,7-methano-7H-pyrazolo[3,4-e][1,3]diazepin-6(5H)-one], for which the MIC worked out at 1 µg/mL (≈ 2.67 µM).

For `CC(N)CCNC(=O)n1cc2c(n1)[C@@H](CN)N1C[C@H]2N(OS(=O)(=O)O)C1=O` (relative stereo) [Ex6, trans 8-(aminomethyl)-2-[(3-amino-butyl)carbamoyl]-4,8-dihydro-5-(sulphooxy)-4,7-methano-7H-pyrazolo[3,4-e][1,3] diazepin-6(5H)-one], the MIC is 4 µg/mL (≈ 9.92 µM).

For `NCCCNC(=O)n1cc2c(n1)[C@@H](CN)N1C[C@H]2N(OS(=O)(=O)O)C1=O` (relative stereo) [Ex5, trans 8-(aminomethyl)-2-[(3-amino-propyl)carbamoyl]-4,8-dihydro-5-(sulphooxy)-4,7-methano-7H-pyrazolo[3,4-e][1,3] diazepin-6(5H)-one], the MIC worked out at 0.5 µg/mL (≈ 1.28 µM).

Turning to `CN(C)CCNC(=O)n1cc2c(n1)[C@@H](CN)N1C[C@H]2N(OS(=O)(=O)O)C1=O` (relative stereo) [Ex3, trans 8-(aminomethyl)-4,8-dihydro-2-(2-dimethylaminoethylcarbamoyl)-5-(sulphooxy)-4,7-methano-7H-pyrazolo[3,4-e][1,3] diazepin-6(5H)-one], the MIC turned out to be 1 µg/mL (≈ 2.48 µM).

Consider `NC[C@@H]1c2nn(CCC(N)C(=O)O)cc2[C@H]2CN1C(=O)N2OS(=O)(=O)O` (relative stereo) [Ex12, trans 8-(amino-methyl)-2-(3-amino-3-carboxy-propyl)-4,8-dihydro-5-(sulphooxy)-4,7-methano-7H-pyrazolo[3,4-e][1,3] diazepin-6(5H)-one], for which the MIC was determined as 0.5 µg/mL (≈ 1.28 µM).

Regarding `N=C(N)n1cc2c(n1)[C@@H](CN)N1C[C@H]2N(OS(=O)(=O)O)C1=O` (relative stereo) [Ex10, trans 8-(aminomethyl)-2-(carbamimidoyl)-4,8-dihydro-5-(sulphooxy)-4,7-methano-7H-pyrazolo[3,4-e] [1,3]diazepin-6(5H)-one], the MIC was determined as 0.5 µg/mL (≈ 1.51 µM).
